Test results: patent publication US20180353755A1, “EPIDURAL STIMULATION FOR FACILITATION OF LOCOMOTION, POSTURE, VOLUNTARY MOVEMENT, AND RECOVERY OF AUTONOMIC, SEXUAL, VASOMOTOR, AND COGNITIVE FUNCTION AFTER NEUROLOGICAL INJURY” (NeuroRecovery Technologies, Inc., priority 2014, published 2018)

Tested on: rat with complete mid-thoracic spinal cord transection
Assay: Locomotor behavior of rats one week after complete mid-thoracic spinal cord transection, drug therapy with or without epidural stimulation (FIG. 1)
Format: in vivo
Details: one week post-injury; for Locomotor behavior, epidural stimulation in combination with a single drug: epidural stimulation simultaneously at L2 plus S1; for Locomotor behavior after administration of drug: no epidural stimulation
Experimental: FIG. 1 summarizes recent experiments in rats that were carried out to assess the effectiveness of epidural stimulation coupled with combined drug therapy in the treatment of complete spinal cord injuries. The combination of quipazine and 8-OHDPAT with simultaneous epidural stimulation at spinal sites L2 and S1 results in robust coordinated stepping as early as one week after a complete spinal cord transection. Locomotor behavior observed from a typical rat before the injury and one week after a complete mid-thoracic spinal cord transection. The amount of body weight support provided to the rat is shown in red. One week post-injury, no spontaneous stepping activity is observed. […] Sol, soleus; TA, tibialis anterior;MTP, metatarsal-phalangeal.
FIG. 1 summarizes experiments in rats that were carried out to assess the effectiveness of epidural stimulation coupled with combined drug therapy in acute treatment of complete spinal cord injury.

Row | SMILES | Locomotor behavior, epidural stimulation in combination with a single drug | Locomotor behavior after administration of drug
1 | CCCN(CCC)C1CCc2cccc(O)c2C1 (stereo not shown) [8-OHDPAT] | enables plantar stepping | erratic movements
2 | c1ccc2nc(N3CCNCC3)ccc2c1 [Quipazine] | enables plantar stepping | erratic movements
